Bridge positions count the residues as written; N and C are the ends. Square brackets hold non-standard residues; d marks the D form. * marks the point of attachment. 5FAM = O=C1OC2(c3ccc(O)cc3Oc3cc(O)ccc32)c2ccc(C(=O)*)cc21; Cba = N[C@@H](CC1CCC1)C(=O)O; βAla = NCCC(=O)O
How the values were obtained:
[1] = system: SJSA-1 cells; test: Cell Viability Assay (MTT), SJSA-1; type: cell-based; conditions: read-out: SJSA-1 EC50 (72 h)
Procedure: The assay is performed according to the following general protocol: • Cell Plating: Trypsinize, count and seed cells at the pre-determined densities in 96-well plates a day prior to assay.
Add 180 μL of the assay media per well. Control wells with no cells, receive 200 μl media.
Peptide dilution: all dilutions are made at room temperature and added to cells at room temperature. • Prepare 10 mM stocks of the peptides in DMSO. Serially dilute the stock using 1:3 dilution scheme to get 10, 3.3, 1.1, 0.33, 0.11, 0.03, 0.01 mM solutions using DMSO as diluents. […] Also prepare DMSO/sterile water (3% DMSO) mix for control wells. • Thus the working stocks concentration range μM will be 300, 100, 30, 10, 3, 1, 0.3 and 0 μM. […] H1-H3 will receive 20 ul of assay media. H4-H9 will receive 20 ul of 3% DMSO-water vehicle. […] Nutlin was diluted using the same dilution scheme as peptides.
(20 μl of 300 μM peptide+180 μl of cells in media=30 μM final concentration in 200 μl volume in wells). Mix gently a few times using pipette. […] Viability of SJSA-1, RKO, RKO-E6, HCT-116 cells is determined on day 3, MCF-7 cells on day 5 and SW-480 cells on day 6. At the end of designated incubation time, allow the plates to come to room temperature. Remove 80 μl of assay media from each well. Add 15 μl of thawed MTT reagent to each well. • Allow plate to incubate for 2 h at 37° C. in humidified 5% CO2 atmosphere and add 100 μl solubilization reagent as per manufacturer's protocol.

[2] = target: MDM2 (Homo sapiens, UniProt Q00987); test: Competitive Fluorescence Polarization Assay for MDM2; type: binding
Chain of MDM2 (Q00987 1-125): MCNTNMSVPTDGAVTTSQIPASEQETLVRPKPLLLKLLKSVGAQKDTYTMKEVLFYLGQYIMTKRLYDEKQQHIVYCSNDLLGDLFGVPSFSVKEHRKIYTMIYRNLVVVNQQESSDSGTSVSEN
Procedure: Competitive Fluorescence Polarization Assay for MDM2
The assay is performed according to the following general protocol: • 1. Dilute MDM2 (In-house, 41 kD) into FP buffer (High salt buffer-200 mM Nacl, 5 mM CHAPS, pH 7.5) to make 84 nM (2×) working stock solution. • 2. Add 20 μl of 84 nM (2×) of protein stock solution into each well of 96-well black HE microplate (Molecular Devices) • 3. Dilute 1 mM (in 100% DMSO) of FAM labeled linear peptide with DMSO to 100 μM (dilution 1:10). Then, dilute from 100 μM to 10 μM with water (dilution 1:10) and then dilute with FP buffer from 10 μM to 40 nM (dilution 1:250). This is the working solution which will be a 10 nM concentration in well (dilution 1:4). Keep the diluted FAM labeled peptide in the dark until use. • 4. Make unlabeled peptide dose plate with FP buffer starting with 1 μM (final) of peptide and making 5 fold serial dilutions for 6 points using following dilution scheme. • Dilute 10 mM (in 100% DMSO) with DMSO to 5 mM (dilution 1:2). Then, dilute from 5 mM to 500 μM with H2O (dilution 1:10) and then dilute with FP buffer from 500 μM to 20 μM (dilution 1:25). Making 5 fold serial dilutions from 4 μM (4×) for 6 points. • 5. Transfer 10 μl of serial diluted unlabeled peptides to each well which is filled with 20 μl of 84 nM of protein. • 6. Add 10 μl of […] of FAM labeled peptide into each well and incubate for 3 hr to read. […]

[3] = target: T1, MDMX (Homo sapiens, UniProt O15151); test: Competitive Fluorescence Polarization Assay for MDMX; type: binding
T1 sequence (O15151 1-125): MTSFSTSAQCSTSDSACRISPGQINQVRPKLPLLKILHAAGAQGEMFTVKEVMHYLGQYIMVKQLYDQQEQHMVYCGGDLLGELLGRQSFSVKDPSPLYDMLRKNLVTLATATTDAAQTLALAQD
Procedure: Competitive Fluorescence Polarization Assay for MDMX
The assay is performed according to the following general protocol: • 1. Dilute MDMX (In-house, 40 kD) into FP buffer (High salt buffer-200 mM Nacl, 5 mM CHAPS, pH 7.5.) to make 300 nM (2×) working stock solution. 2. Add 20 μl of 300 nM (2×) of protein stock solution into each well of 96-well black HE microplate (Molecular Devices) • 3. Dilute 1 mM (in 100% DMSO) of FAM labeled linear peptide with DMSO to 100 μM (dilution 1:10). Then, dilute from 100 μM to 10 μM with water (dilution 1:10) and then dilute with FP buffer from 10 μM to 40 nM (dilution 1:250). This is the working solution which will be a 10 nM concentration in well (dilution 1:4). Keep the diluted FAM labeled peptide in the dark until use. • 4. Make unlabeled peptide dose plate with FP buffer starting with 5 μM (final) of peptide and making 5 fold serial dilutions for 6 points using following dilution scheme. • 5. Dilute 10 mM (in 100% DMSO) with DMSO to 5 mM (dilution 1:2). Then, dilute from 5 mM to 500 μM with H2O (dilution 1:10) and then dilute with FP buffer from 500 μM to 20 μM (dilution 1:25). Making 5 fold serial dilutions from 20 μM (4×) for 6 points. • 6. Transfer 10 μl of serial diluted unlabeled peptides to each well which is filled with 20 μl of 300 nM of protein. • 7. Add 10 μl of […] of FAM labeled peptide into each well and incubate for 3 hr to read. […]

| Substance | EC50 [1] [µM] | Ki [2] [µM] | Ki [3] [µM] |
| --- | --- | --- | --- |
| 452 (Ac-LTF[Alpha‑Me R‑azide 1,5 triazole (6 carbon) alanine]AYWAQL[Alpha‑Me alkyne 1,5 triazole (5 carbon) alanine]AAAAA[dA]-NH2; triazole 4-11; not fully specified; printed as Ac-LTF$5rn6AYWAQL$5a5AAAAAa-NH2) [compound 452] | > 30 | – | – |
| 461 (5FAM-[βAla]LTF[Alpha‑Me R‑azide 1,4 triazole (6 carbon) alanine]EYWAQ[Cba][Alpha‑Me alkyne 1,4 triazole (5 carbon) alanine]SAA-NH2; triazole 5-12; not fully specified) [compound 461] | 5 to 15 | – | – |
| 463 (5FAM-[βAla]LTF[Alpha‑Me R‑azide 1,5 triazole (6 carbon) alanine]EYWAQ[Cba][Alpha‑Me alkyne 1,5 triazole (5 carbon) alanine]SAA-NH2; triazole 5-12; not fully specified) [compound 463] | 15 to 30 | – | – |
| 464 (5FAM-[βAla]LTA[Alpha‑Me R‑azide 1,5 triazole (6 carbon) alanine]EYWAQ[Cba][Alpha‑Me alkyne 1,5 triazole (5 carbon) alanine]SAA-NH2; triazole 5-12; not fully specified) [compound 464] | > 30 | – | – |
| 466 (LTFAEYWAQAASAA; not fully specified; stapled, Ac, NH2, Cba5Prp; N-term Ac; MOD_RES (4)..(4): Alpha-Me R-azide 1,4 triazole (6 carbon) alanine olefin amino acid connected by an all-carbon crosslinker comprising one double bond; misc_feature (4)..(11): Crosslink between residues; MOD_RES () [compound 466] | – | < 0.01 | < 0.01 |

— patent publication US10227380B2, “Triazole-crosslinked and thioether-crosslinked peptidomimetic macrocycles” (AILERON THERAPEUTICS, INC., priority 2012, dated 2019)
